Laboratory results published in patent US12390437B2, “Itaconic acid derivatives and uses thereof intreating an inflammatory disease or a disease associated with an undesirable immune response” (Sitryx Therapeutics Limited, priority 2019, dated 2025).
Where two headings read alike, the source gives them in different places.

Assays:
[1] = test system: IL-1β cytokine output from THP-1s; experiment: THP-1 AlphaLISA IL-1β cytokine assay; format: cell-based, human; conditions: Homo sapiens, LPS 24 hr then Nigericin 1 hour, read-out: IL-1β (IC50)
Method: Measuring Inhibitory Effects on IL-1β and IL-6 Cytokine Output from THP-1s
The cytokine inhibition profiles of compounds of formula (IW-1) were determined in a differentiated THP-1 cell assay. All assays were performed in RPMI-1640 growth medium (Gibco), supplemented with 10% fetal bovine serum (FBS; Gibco), 1% penicillin-streptomycin and 1% sodium pyruvate unless specified otherwise. The IL-1β and IL-6 cytokine inhibition assays were each run in a background of differentiated THP-1 cells as described below. All reagents described were from Sigma-Aldrich unless specified otherwise. Compounds were prepared as 10 mM DMSO stocks.
THP-1 cells were expanded as a suspension up to 80% confluence in appropriate growth medium. Cells were harvested, suspended, and treated with an appropriate concentration of phorbol 12-myristate 13-acetate (PMA) over a 72 hr period (37° C./5% CO2).
Following 72 hrs of THP-1 cell incubation, cellular medium was removed and replaced with fresh growth media containing 1% of FBS. Working concentrations of compounds were prepared separately in 10% FBS treated growth medium and pre-incubated with the cells for 30 minutes (37° C./5% CO2). Following the 30 minute compound pre-incubation, THP-1s were treated with an appropriate concentration of LPS and the THP-1s were subsequently incubated for a 24 hr period (37° C./5% CO2). An appropriate final concentration of Nigericin was then dispensed into the THP-1 plates and incubated for 1 hour (37° C./5% CO2) before THP-1 supernatants were harvested and collected in separate polypropylene 96-well holding plates.
Reagents from each of the IL-1β and IL-6 commercial kits (Perkin Elmer) were prepared and run according to the manufacturer's instructions. Subsequently, fluorescence signal detection in a microplate reader was measured (EnVision® Multilabel Reader, Perkin Elmer).
Percentage inhibition was calculated per cytokine by normalising the sample data to the high and low controls used within each plate (+/−LPS respectively). Percentage inhibition was then plotted against compound concentration and the 50% inhibitory concentration (IC50) was determined from the resultant concentration-response curve.

[2] = Mouse pharmacokinetic study, intravenous dosing; format: in vivo; conditions: male, C57BL/6, mouse, iv, plasma, 10 mg/kg i.v., read-out: Parent compound concentration following intravenous administration
Method: Pharmacokinetic studies were carried out in 6-8-week-old male C57BL/6 mice having free access to food and water. Intravenous dosing was conducted at 10 mg/kg (5 mL/kg; vehicle: 10% DMSO-90% (25% HP-13-CD in water)) via tail vein injection, with sampling at 3 min, 8 min, 15 min, 30 min, 1, 2, 4, 6 and 8 hours, i.e., 9 time points in total (N=3/time point), using semi-serial bleeding for plasma. Oral compound administration, via gavage, was carried out at 100 mg/kg (10 mL/kg; vehicle: 5% DMSO-95% (0.5% HPMC+0.1% Tween 80 in water)), with sampling at 5 min, 15 min, 30 min, 1, 2, 4, 6, 8 and 24 hours, i.e., 9 time points in total (N=3/time point), using semi-serial bleeding for plasma.
For both intravenous and oral routes, the mice were restrained manually at the designated time points, with ca. 110 μL of blood being taken into K2EDTA tubes via the facial vein. Blood samples were put on ice and centrifuged to obtain plasma samples from which the concentration at each time point was measured by LC-MS/MS.

[3] = THP-1, PMA-differentiated THP-1 cells

| SMILES | IC50 [1, 3] [µM] | other results |
| --- | --- | --- |
| C=C(CC(=O)OC12CC3CC(CC(C3)C1)C2)C(=O)OCC(=O)O [Example 172, 2-((4-((-adamantan-1-yl)oxy)-2-methylene-4-oxobutanoyl)oxy)acetic Acid] | – | IC50 ([1]; PMA-differentiated THP-1 cells): 23.8 µM; concentration at 0.05 h ([2]; time 0.05 h): 23700 ng/mL; concentration at 0.133 h ([2]; time 0.133 h): 11300 ng/mL; concentration at 0.25 h ([2]; time 0.25 h): 2640 ng/mL; concentration at 0.5 h ([2]; time 0.5 h): 1210 ng/mL; concentration at 1 h ([2]; time 1 h): 75 ng/mL; concentration at 2 h ([2]; time 2 h): 9.9 ng/mL; concentration at 4 h ([2]; time 4 h): 6.1 ng/mL; concentration at 6 h ([2]; time 6 h): < 4 ng/mL; concentration at 8 h ([2]; time 8 h): < 4 ng/mL |
| C=C(CC(=O)OCCCCCC)C(=O)OCCN1CCCC1=O [Example 77, 4-hexyl 1-(2-(2-oxopyrrolidin-1-yl)ethyl) 2-methylenesuccinate] | 14.5 | – |
| C=C(CC(=O)OC1(C2CCCCC2)CCC1)C(=O)OCC(=O)O [Example 191, 2-((4-(1-cyclohexylcyclobutoxy)-2-methylene-4-oxobutanoyl)oxy)acetic acid] | 26.6 | – |
| C=C(CC(=O)O[C@H](C)CCCCCC)C(=O)O[C@H](CC(=O)O)C(F)(F)F [Example 188, (R)-4,4,4-trifluoro-3-((2-methylene-4-(((R)-octan-2-yl)oxy)-4-oxobutanoyl)oxy)butanoic Acid] | 3.5 | – |
| C=C(CC(=O)OC(C)c1cc(Cl)cc(Cl)c1)C(=O)OCC(=O)O (centres unmarked) [Example 176, 2-((4-(1-(3,5-dichlorophenyl)ethoxy)-2-methylene-4-oxobutanoyl)oxy)acetic acid] | 12 | – |
| C=C(CC(=O)OC(CCC)CCC)C(=O)OCC(=O)O [Example 148, 2-((4-(heptan-4-yloxy)-2-methylene-4-oxobutanoyl)oxy)acetic acid] | 29.6 | – |
| C=C(CC(=O)O[C@H](C)CCCCCC)C(=O)OC(C)Cc1nnn[nH]1 (stereo partly drawn) [Example 140, 1-(1-(1H-tetrazol-5-yl)propan-2-yl) 4-((R)-octan-2-yl) 2-methylenesuccinate] | 7.8 | – |
| C=C(CC(=O)OC1CCCCC1)C(=O)OCCS(=O)(=O)CCC(=O)O [Example 124, 3-((2-((4-(cyclohexyloxy)-2-methylene-4-oxobutanoyl)oxy)ethyl)sulfonyl)propanoic acid] | – | IC50 ([1]; PMA-differentiated THP-1 cells): 52.4 µM |
| C=C(CC(=O)O[C@H](C)CCCCCCC)C(=O)OCC(=O)O [Example 183, (R)-2-((2-methylene-4-(nonan-2-yloxy)-4-oxobutanoyl)oxy)acetic acid] | 9.6 | – |
| C=C(CC(=O)O[C@@H](C)c1ccc(C(F)(F)F)cc1)C(=O)OCC(=O)O [Example 201, (S)-2-((2-methylene-4-oxo-4-(1-(4-(trifluoromethyl)phenyl)ethoxy)butanoyl)oxy) acetic acid] | 24.6 | – |
| C=C(CC(=O)O[C@H](C)CCCCCC)C(=O)OCc1cc(=O)[nH]o1 [Example 187, (R)-4-(octan-2-yl) 1-((3-oxo-2,3-dihydroisoxazol-5-yl)methyl) 2-methylenesuccinate] | 2.9 | – |
| C=C(CC(=O)O[C@@H](C)CCCCCC)C(=O)OCC(=O)NCC(=O)O [Example 106, (S)-(2-((2-methylene-4-(octan-2-yloxy)-4-oxobutanoyl)oxy)acetyl)glycine] | 15.6 | – |
| C=C(CC(=O)OC1CCCCC1)C(=O)OCc1nnnn1C [Example 143, 4-cyclohexyl 1-((1-methyl-1H-tetrazol-5-yl)methyl) 2-methylenesuccinate] | 2 | – |
| C=C(CC(=O)O[C@H](C)CCCCCC)C(=O)O[C@H]1[C@@H]2CC[C@H]1CN(S(C)(=O)=O)C2 [Example 186, 1-((endo)-3-(methylsulfonyl)-3-azabicyclo[3.2.1]octan-8-yl) 4-((R)-octan-2-yl) 2-methylenesuccinate] | 3.5 | – |
| C=C(CC(=O)OC(C)CCCCCCC)C(=O)OCC(=O)O (centres unmarked) [Example 174, 2-((2-methylene-4-(nonan-2-yloxy)-4-oxobutanoyl)oxy)acetic acid] | 10.9 | – |

Further lines, with some results ahead:

| IC50 [1, 3] [µM] | SMILES | other results |
| --- | --- | --- |
| 54.2 | C=C(CC(=O)OC1CCCCCCC1)C(=O)O[C@@H](C)[C@@H](NC(C)=O)C(=O)O (stereo in doubt) [Example 136, (2R,3S)-2-acetamido-3-((4-(cyclooctyloxy)-2-methylene-4-oxobutanoyl)oxy)butanoic acid] | – |
| 8.4 | C=C(CC(=O)OC1CCC2(CCC2)CC1)C(=O)OCC(=O)O [Example 154, 2-(2-methylene-4-oxo-4-(spiro[3.5]nonan-7-yloxy)butanoyloxy)acetic acid] | – |
| 7 | C=C(CC(=O)OC1CC2(CCCCC2)C1)C(=O)OCC(=O)O [Example 153, 2-(2-methylene-4-oxo-4-(spiro[3.5]nonan-2-yloxy)butanoyloxy)acetic acid] | – |
| 10.3 | C=C(CC(=O)OC(C)C1CCCCCC1)C(=O)OCC(=O)O (centres unmarked) [Example 151, 2-((4-(1-cycloheptylethoxy)-2-methylene-4-oxobutanoyl)oxy)acetic acid] | – |
| 24.3 | C=C(CC(=O)OC1(C)CC2(CCCCC2)C1)C(=O)OCC(=O)O [Example 195, 2-((2-methylene-4-((2-methylspiro[3.5]nonan-2-yl)oxy)-4-oxobutanoyl)oxy)acetic acid] | – |
| 21.4 | C=C(CC(=O)OC1C(C)(C)CCCC1(C)C)C(=O)OCC(=O)O [Example 197] | – |
| 22 | C=C(CC(=O)O[C@@H](C)C1CCCCC1)C(=O)OCC(=O)O [Example 203, (S)-2-((4-(1-cyclohexylethoxy)-2-methylene-4-oxobutanoyl)oxy)acetic acid] | – |
| 32.8 | C=C(CC(=O)OC1C2CCCC1CCC2)C(=O)OCC(=O)O (centres unmarked) [Example 181, 2-((4-(bicyclo[3.3.1]nonan-9-yloxy)-2-methylene-4-oxobutanoyl)oxy)acetic acid] | – |
